Measured values taken from ChEMBL document CHEMBL1145498, “A systematic interaction map of validated kinase inhibitors with Ser/Thr kinases” (Proc Natl Acad Sci U S A, 2007).

Legend:
[1] = target: Calcium/calmodulin-dependent protein kinase type 1G (Homo sapiens) (UniProt Q96NX5)
[2] = target: Calcium/calmodulin-dependent protein kinase type II subunit beta (Homo sapiens) (UniProt Q13554)
[3] = target: Cyclin-dependent kinase-like 1 (Homo sapiens) (UniProt Q00532)
[4] = target: Casein kinase I isoform gamma-1 (Homo sapiens) (UniProt Q9HCP0)
Chain of Casein kinase I isoform gamma-1 (Homo sapiens) (Q9HCP0 whole entry, looked up, canonical isoform): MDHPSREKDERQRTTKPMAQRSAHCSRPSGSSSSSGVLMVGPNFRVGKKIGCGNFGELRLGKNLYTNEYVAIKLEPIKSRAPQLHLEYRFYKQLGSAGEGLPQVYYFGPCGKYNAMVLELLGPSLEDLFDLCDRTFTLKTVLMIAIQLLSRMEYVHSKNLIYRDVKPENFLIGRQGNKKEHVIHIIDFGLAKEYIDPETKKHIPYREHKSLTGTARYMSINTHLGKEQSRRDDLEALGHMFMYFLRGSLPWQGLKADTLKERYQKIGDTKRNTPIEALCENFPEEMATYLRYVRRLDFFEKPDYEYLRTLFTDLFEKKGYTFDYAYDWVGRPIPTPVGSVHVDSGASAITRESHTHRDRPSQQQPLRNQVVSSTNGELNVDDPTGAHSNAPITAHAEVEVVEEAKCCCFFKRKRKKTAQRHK

[5] = target: Death-associated protein kinase 3 (Homo sapiens) (UniProt O43293)
[6] = target: Dual specificity mitogen-activated protein kinase kinase 2 (Homo sapiens, UniProt P36507)
[7] = target: T1, Dual specificity mitogen-activated protein kinase kinase 6 (Homo sapiens) (UniProt P52564)
T1 sequence (whole entry): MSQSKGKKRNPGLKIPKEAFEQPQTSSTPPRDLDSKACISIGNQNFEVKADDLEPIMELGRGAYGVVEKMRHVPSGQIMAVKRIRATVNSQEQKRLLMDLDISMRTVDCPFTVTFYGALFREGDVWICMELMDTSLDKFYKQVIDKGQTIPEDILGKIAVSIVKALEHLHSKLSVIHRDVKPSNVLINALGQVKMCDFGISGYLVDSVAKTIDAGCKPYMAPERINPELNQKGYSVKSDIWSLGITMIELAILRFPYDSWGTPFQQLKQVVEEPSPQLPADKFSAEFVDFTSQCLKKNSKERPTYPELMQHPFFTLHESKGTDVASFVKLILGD

[8] = target: T2, Mitogen-activated protein kinase kinase kinase 5 (Homo sapiens) (UniProt Q99683)
T2 sequence (whole entry): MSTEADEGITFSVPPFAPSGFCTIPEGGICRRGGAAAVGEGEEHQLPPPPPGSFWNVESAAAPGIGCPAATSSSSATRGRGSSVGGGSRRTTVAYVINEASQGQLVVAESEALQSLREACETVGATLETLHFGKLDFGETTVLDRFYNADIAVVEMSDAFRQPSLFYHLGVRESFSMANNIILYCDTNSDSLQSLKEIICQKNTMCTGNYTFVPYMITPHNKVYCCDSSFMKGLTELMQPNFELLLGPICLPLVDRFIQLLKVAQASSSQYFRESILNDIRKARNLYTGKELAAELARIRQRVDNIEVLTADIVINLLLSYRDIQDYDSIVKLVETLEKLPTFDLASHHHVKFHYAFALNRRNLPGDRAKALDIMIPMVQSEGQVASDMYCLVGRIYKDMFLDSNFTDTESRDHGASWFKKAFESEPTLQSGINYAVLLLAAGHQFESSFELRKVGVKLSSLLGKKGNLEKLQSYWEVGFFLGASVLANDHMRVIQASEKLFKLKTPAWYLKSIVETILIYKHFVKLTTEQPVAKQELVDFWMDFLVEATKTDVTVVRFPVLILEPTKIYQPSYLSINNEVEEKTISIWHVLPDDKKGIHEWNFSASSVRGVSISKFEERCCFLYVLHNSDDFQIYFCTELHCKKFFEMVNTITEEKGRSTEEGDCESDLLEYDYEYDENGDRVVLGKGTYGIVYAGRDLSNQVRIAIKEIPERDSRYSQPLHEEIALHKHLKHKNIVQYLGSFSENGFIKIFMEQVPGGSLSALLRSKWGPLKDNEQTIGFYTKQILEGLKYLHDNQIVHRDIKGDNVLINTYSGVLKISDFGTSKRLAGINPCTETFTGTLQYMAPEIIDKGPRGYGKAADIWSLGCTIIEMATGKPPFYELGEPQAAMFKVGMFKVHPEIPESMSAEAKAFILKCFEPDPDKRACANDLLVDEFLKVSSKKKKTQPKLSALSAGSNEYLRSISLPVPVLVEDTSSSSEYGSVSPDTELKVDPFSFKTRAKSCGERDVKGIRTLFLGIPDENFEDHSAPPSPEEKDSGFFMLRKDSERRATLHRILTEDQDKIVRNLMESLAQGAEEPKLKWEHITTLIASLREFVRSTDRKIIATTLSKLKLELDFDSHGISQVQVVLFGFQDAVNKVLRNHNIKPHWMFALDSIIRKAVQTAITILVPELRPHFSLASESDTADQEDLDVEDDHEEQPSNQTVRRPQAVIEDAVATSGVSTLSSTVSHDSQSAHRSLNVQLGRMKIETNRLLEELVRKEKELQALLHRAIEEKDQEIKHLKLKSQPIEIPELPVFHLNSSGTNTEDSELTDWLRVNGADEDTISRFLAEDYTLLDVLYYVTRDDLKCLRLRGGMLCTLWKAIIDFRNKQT

[9] = target: Mitogen-activated protein kinase 6 (Homo sapiens) (UniProt Q16659)
Chain of Mitogen-activated protein kinase 6 (Homo sapiens) (Q16659 whole entry): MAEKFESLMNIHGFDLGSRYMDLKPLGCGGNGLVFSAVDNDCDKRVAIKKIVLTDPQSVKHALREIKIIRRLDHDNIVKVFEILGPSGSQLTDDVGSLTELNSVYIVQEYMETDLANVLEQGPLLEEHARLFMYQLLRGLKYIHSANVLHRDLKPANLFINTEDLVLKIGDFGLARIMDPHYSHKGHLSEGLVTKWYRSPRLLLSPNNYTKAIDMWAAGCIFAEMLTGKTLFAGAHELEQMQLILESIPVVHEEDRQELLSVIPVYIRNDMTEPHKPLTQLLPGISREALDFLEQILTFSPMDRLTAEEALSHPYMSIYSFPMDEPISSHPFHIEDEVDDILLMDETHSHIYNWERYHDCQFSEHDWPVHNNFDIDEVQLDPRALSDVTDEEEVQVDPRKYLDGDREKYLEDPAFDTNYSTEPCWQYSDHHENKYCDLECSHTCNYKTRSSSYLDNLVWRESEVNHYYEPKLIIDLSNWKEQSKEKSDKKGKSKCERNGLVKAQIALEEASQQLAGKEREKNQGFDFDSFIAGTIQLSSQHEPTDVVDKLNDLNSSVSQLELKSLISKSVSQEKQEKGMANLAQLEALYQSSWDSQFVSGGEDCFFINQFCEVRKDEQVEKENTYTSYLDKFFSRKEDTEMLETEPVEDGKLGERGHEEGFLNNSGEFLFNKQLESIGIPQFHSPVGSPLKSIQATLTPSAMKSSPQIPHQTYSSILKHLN

[10] = target: Serine/threonine-protein kinase OSR1 (Homo sapiens) (UniProt O95747)
Chain of Serine/threonine-protein kinase OSR1 (Homo sapiens) (O95747 2-527 limits assumed): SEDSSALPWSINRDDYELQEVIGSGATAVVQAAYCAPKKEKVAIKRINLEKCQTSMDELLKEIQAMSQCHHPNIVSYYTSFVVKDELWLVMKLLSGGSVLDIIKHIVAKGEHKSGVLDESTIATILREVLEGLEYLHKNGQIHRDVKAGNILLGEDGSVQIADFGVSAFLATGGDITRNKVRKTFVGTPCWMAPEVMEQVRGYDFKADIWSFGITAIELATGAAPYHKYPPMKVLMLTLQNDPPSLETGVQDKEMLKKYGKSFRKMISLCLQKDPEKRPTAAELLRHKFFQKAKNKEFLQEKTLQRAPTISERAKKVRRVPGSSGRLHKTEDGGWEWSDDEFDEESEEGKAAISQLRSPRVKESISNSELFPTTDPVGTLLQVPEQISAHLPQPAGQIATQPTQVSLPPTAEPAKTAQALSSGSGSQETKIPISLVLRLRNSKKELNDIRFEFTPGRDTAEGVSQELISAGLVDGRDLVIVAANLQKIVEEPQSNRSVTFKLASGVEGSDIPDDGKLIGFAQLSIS

[11] = target: Serine/threonine-protein kinase RIO2 (Homo sapiens) (UniProt Q9BVS4)
Chain of Serine/threonine-protein kinase RIO2 (Homo sapiens) (Q9BVS4 whole entry, looked up): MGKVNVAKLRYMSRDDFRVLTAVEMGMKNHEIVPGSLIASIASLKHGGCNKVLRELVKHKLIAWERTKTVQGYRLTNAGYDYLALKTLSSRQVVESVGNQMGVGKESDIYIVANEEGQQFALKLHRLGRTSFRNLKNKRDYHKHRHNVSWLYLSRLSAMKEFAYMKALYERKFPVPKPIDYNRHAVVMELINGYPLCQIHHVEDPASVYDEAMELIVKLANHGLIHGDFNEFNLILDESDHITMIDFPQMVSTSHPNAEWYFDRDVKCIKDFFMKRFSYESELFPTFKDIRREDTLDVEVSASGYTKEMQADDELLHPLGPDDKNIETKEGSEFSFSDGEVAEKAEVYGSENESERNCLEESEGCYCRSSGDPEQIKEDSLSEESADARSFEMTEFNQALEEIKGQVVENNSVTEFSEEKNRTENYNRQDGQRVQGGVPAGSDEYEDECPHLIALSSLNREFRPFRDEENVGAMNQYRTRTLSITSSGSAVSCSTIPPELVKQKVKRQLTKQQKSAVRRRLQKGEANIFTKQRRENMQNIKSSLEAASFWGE

[12] = target: Ribosomal protein S6 kinase alpha-3 (Homo sapiens) (UniProt P51812)
Chain of Ribosomal protein S6 kinase alpha-3 (Homo sapiens) (P51812 whole entry): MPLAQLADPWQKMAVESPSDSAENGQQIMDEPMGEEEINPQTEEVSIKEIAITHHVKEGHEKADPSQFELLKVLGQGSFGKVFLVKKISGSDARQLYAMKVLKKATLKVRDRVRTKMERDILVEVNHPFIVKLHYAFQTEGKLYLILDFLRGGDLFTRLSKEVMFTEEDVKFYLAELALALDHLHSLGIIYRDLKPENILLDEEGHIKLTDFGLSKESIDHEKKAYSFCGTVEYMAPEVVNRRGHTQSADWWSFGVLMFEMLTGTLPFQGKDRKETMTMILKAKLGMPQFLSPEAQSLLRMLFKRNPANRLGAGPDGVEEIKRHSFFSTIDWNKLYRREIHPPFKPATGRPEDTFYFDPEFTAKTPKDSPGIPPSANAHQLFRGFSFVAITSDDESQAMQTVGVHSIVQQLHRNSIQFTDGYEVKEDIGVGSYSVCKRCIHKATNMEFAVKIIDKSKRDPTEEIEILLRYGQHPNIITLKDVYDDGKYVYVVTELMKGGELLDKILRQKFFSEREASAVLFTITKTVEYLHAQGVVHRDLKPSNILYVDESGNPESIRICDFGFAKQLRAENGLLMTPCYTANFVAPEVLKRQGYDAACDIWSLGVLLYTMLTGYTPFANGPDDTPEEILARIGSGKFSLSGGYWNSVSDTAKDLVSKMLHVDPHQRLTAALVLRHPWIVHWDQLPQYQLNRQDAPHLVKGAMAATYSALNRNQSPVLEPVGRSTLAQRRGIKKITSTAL

[13] = target: T3, Serine/threonine-protein kinase 17A (Homo sapiens) (UniProt Q9UEE5)
T3 sequence (whole entry): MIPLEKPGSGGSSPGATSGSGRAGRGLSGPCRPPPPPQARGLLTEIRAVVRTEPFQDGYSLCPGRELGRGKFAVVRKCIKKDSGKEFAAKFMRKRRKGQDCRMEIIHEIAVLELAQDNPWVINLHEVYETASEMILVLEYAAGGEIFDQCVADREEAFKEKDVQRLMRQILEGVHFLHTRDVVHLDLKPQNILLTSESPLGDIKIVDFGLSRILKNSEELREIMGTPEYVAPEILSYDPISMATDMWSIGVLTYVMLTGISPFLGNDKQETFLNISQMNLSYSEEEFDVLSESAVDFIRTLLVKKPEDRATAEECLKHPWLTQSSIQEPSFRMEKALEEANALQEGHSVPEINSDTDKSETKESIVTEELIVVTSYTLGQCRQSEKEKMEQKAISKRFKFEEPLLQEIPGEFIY

[14] = target: Serine/threonine-protein kinase 26 (Homo sapiens) (UniProt Q9P289)
Chain of Serine/threonine-protein kinase 26 (Homo sapiens) (Q9P289 2-416 limits assumed): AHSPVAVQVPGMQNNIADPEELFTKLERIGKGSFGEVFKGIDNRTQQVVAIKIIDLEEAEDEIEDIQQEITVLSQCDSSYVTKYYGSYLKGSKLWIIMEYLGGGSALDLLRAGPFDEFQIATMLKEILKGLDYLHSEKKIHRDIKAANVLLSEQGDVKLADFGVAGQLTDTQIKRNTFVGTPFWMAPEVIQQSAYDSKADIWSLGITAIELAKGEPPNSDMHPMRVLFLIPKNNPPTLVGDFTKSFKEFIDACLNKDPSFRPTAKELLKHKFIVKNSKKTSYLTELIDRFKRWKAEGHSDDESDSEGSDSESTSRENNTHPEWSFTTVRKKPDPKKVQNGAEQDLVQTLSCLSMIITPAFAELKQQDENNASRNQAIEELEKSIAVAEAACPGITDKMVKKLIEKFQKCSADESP

Chain of Calcium/calmodulin-dependent protein kinase type 1G (Homo sapiens) (Q96NX5 whole entry): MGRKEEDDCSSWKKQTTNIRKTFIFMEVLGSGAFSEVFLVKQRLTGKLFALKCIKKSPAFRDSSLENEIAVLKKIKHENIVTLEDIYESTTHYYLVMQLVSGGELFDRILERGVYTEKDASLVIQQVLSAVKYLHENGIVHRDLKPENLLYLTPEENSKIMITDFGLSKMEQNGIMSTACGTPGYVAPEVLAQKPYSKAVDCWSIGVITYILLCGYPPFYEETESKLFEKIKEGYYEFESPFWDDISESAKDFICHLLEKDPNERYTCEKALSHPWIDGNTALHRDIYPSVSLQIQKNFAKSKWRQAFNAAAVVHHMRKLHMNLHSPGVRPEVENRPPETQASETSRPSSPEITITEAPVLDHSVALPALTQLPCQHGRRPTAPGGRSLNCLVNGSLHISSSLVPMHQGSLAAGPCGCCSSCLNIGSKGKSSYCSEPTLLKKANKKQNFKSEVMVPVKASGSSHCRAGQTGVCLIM
Chain of Calcium/calmodulin-dependent protein kinase type II subunit beta (Homo sapiens) (Q13554 whole entry): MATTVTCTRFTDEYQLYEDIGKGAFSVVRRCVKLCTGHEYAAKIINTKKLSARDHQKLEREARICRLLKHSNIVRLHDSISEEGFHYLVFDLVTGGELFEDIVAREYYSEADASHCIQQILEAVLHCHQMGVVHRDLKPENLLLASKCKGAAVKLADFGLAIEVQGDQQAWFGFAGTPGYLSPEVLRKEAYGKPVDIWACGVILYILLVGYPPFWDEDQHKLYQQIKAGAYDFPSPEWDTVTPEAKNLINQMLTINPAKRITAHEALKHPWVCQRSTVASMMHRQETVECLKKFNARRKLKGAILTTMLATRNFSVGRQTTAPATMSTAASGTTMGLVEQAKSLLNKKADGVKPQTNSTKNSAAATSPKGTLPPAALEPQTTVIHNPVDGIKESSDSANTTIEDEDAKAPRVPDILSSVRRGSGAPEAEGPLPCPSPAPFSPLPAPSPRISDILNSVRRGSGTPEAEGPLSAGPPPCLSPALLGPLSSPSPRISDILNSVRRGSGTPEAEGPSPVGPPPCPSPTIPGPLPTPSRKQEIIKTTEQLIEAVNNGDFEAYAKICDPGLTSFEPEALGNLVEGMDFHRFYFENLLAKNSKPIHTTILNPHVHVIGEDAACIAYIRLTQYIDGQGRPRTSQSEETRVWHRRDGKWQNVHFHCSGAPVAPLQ
Chain of Cyclin-dependent kinase-like 1 (Homo sapiens) (Q00532 whole entry, canonical isoform): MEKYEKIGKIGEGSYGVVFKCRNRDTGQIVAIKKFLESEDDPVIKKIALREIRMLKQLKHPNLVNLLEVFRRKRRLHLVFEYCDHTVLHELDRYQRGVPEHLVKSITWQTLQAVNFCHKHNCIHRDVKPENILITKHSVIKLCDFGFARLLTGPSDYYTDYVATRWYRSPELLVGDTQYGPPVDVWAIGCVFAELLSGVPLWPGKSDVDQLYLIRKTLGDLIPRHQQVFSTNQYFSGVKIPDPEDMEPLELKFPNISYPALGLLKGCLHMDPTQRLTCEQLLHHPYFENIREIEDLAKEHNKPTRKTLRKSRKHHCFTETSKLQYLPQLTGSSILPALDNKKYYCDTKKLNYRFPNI

SMILES | ΔTm [1] [°C] | ΔTm [2] [°C] | ΔTm [3] [°C] | ΔTm [4] [°C] | ΔTm [5] [°C] | ΔTm [6] [°C] | ΔTm [7] [°C] | ΔTm [8] [°C] | ΔTm [9] [°C] | ΔTm [10] [°C] | ΔTm [11] [°C] | ΔTm [12] [°C] | ΔTm [13] [°C] | ΔTm [14] [°C]
CCOC(=O)c1c(C)[nH]c(/C=C2\C(=O)Nc3ccccc32)c1C | -1.3 | 0.7 | 0.5 | -11.4 | 0 | 0.4 | 0 | -1.4 | -0.1 | -0.1 | -8.9 | 3 | 4.5 | -0.7
O=c1cc(N2CCOCC2)oc2c1ccc1ccccc12 | 0.1 | 0.3 | 0.1 | 0.4 | 1.8 | 0.1 | 0 | 1.2 | 0.4 | 0.5 | 0.4 | 0.3 | 0.6 | 0.2
COc1ccc2c(c[n+](C)c3c4cc5c(cc4ccc23)OCO5)c1OC [CHELERYTHRINE CHLORIDE] | -1.1 | 0.1 | -3.5 | 0 | 0.1 | -0.9 | -6.6 | -0.2 | -0.3 | -2.6 | -0.4 | -1.3 | -0.8 | -4.2
CN(C)C[C@@H]1CCn2cc(c3ccccc32)C2=C(C(=O)NC2=O)c2cn(c3ccccc23)CCO1 [RUBOXISTAURIN] | 0.1 | 0.5 | 0.3 | 0.5 | 1.1 | 0.1 | 0.5 | 0.1 | 0.1 | -0.5 | 1.8 | 8.1 | -0.2 | 4.1
COc1cc(/C=C/C(=O)CC(=O)/C=C/c2ccc(O)c(OC)c2)ccc1O [CURCUMIN] | 1.3 | 1 | 3.9 | 4.5 | 1.8 | 2.8 | 4 | 3.1 | 1.8 | 3.7 | 2.8 | 3.4 | 7.4 | 2.9
O=C(Nc1cccc(Nc2nccc(Nc3cccc(C(F)(F)F)c3)n2)c1)C1CC1 [ANILINOPYRIMIDINE1] | 3.8 | 1 | 1.6 | 0.7 | 6.5 | 0.8 | 0.2 | 0.2 | 1.8 | 1.2 | 3.7 | 4.8 | 1.5 | 0.7
N#CC(C#N)=Cc1ccc(O)c(O)c1 [TYRPHOSTIN 23] | 0 | 0.1 | -0.1 | 0.4 | 0.7 | 0.1 | 0.2 | 0.1 | 0.1 | 0.8 | 1.5 | 0.2 | 0.9 | 0.1
CC(C)n1cnc2/c(=N/c3cccc(Cl)c3)nc(NCCO)[nH]c21 | 0.1 | 0.4 | -0.1 | 6.1 | 2.2 | 0.2 | 0.3 | 0.4 | 0.2 | 1.3 | 1 | 4.6 | 1.4 | 0.9
CC(C)(C)n1nc(-c2cccc3ccccc23)c2c(N)ncnc21 | -0.3 | 0.2 | -0.5 | 0.1 | -0.8 | 3.2 | 3.5 | 0.8 | 0 | 1.1 | 0.4 | 2.4 | 2 | 1.1
COc1cc(OC)c(/C=C2\C(=O)Nc3ccccc32)c(OC)c1 | 0 | 0.1 | -0.5 | 0.5 | -0.3 | -0.4 | 0 | 0 | -0.2 | 0.2 | -0.2 | -0.2 | -0.3 | 0
CC(C)(C)n1nc(-c2ccc(Cl)cc2)c2c(N)ncnc21 | 0 | 0.2 | -0.4 | 1 | -1.1 | 3.3 | 2.1 | 0.3 | -0.2 | 1.2 | 3.1 | 2.1 | 0.1 | -0.3
C/C(O)=C(\C#N)C(=O)Nc1cc(Br)ccc1Br | -0.1 | 0 | 0.8 | 0.7 | 0.7 | -0.2 | 0.2 | -0.7 | 0.4 | 1.1 | 1.5 | 0.6 | 0.6 | -0.1
COc1cccc(-c2cc(=O)c3ccccc3o2)c1N | -0.2 | 0 | 0 | 0.1 | -0.5 | 0.1 | -0.1 | -0.1 | 0.3 | 0.2 | 0.5 | -0.1 | 0.7 | -0.3
CCOc1cc2ncnc(Nc3cccc(Br)c3)c2cc1OCC | 0.4 | 0.8 | 0 | 1.2 | 2.7 | 0.8 | 0.3 | 0.6 | 0.2 | 1 | 3.5 | 2.5 | 2.9 | 0.8
